From PubChem BioAssay (NCI)
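Where inhibition never reached the appropriate level, the endpoint shown equals the highest concentration tested. Otherwise, values were interpolated linearly from a five-concentration, 48-hour dose response in 96-well plates. At the TGI there is no net growth.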

Experiments:
Experiment in all cases: NCI tumour cell line growth inhibition, 48 h
[1] = tested on: RPMI-8226 leukemia
[2] = tested on: RXF 393 renal
[3] = tested on: PC-3 prostate
[4] = tested on: TK-10 renal
[5] = tested on: MCF7 breast
[6] = tested on: LOX IMVI melanoma
[7] = tested on: SN12C renal
[8] = tested on: CCRF-CEM leukemia
[9] = tested on: SK-MEL-5 melanoma
[10] = tested on: ACHN renal
[11] = tested on: SNB-75 CNS
[12] = tested on: NCI-H522 lung
[13] = tested on: OVCAR-4 ovarian
[14] = tested on: A498 renal
[15] = tested on: HS 578T breast
[16] = tested on: KM12 colon
[17] = tested on: MALME-3M melanoma
[18] = tested on: COLO 205 colon
[19] = tested on: UO-31 renal
[20] = tested on: HT29 colon
[21] = tested on: HOP-92 NSCLC
[22] = tested on: SK-MEL-28 melanoma
[23] = tested on: CAKI-1 renal
[24] = tested on: HOP-62 NSCLC
[25] = tested on: K-562 leukemia
[26] = tested on: MDA-MB-231 breast
[27] = tested on: BT-549 breast
[28] = tested on: 786-0 renal
[29] = tested on: DU-145 prostate
[30] = tested on: SW-620 colon
[31] = tested on: SF-539 CNS
[32] = tested on: UACC-62 melanoma
[33] = tested on: NCI-H460 lung
[34] = tested on: MOLT-4 leukemia
[35] = tested on: MDA-N
[36] = tested on: NCI-H23 lung
[37] = tested on: HCT-15 colon
[38] = tested on: SR leukemia
[39] = tested on: MDA-MB-435
[40] = tested on: OVCAR-5 ovarian
[41] = tested on: HL-60(TB) leukemia
[42] = tested on: NCI/ADR-RES ovarian
[43] = tested on: HCT-116 colon
[44] = tested on: UACC-257 melanoma
[45] = tested on: SK-MEL-2 melanoma
[46] = tested on: T-47D breast
[47] = tested on: OVCAR-3 ovarian
[48] = tested on: HCC-2998 colon
[49] = tested on: A549 NSCLC
[50] = tested on: SK-OV-3 ovarian
[51] = tested on: OVCAR-8 ovarian
[52] = tested on: IGROV1 ovarian
[53] = tested on: U251 CNS
[54] = tested on: SF-268 CNS
[55] = tested on: SF-295 CNS
[56] = tested on: NCI-H226 lung
[57] = tested on: SNB-19 CNS
[58] = tested on: EKVX NSCLC
[59] = tested on: M14 melanoma

Measured: TGI

Cc1cccc(-c2nc3ccc([N+](=O)[O-])cc3c(=O)o2)c1
97.9 µM: [15]
93 µM: [21]
96.7 µM: [8]
> 100 µM: [1] | [2] | [3] | [4] | [5] | [6] | [7] | [9] | [10] | [11] | [12] | [13] | [14] | [16] | [17] | [18] | [19] | [20] | [22] | [23] | [24] | [25] | [26] | [27] | [28] | [29] | [30] | [31] | [32] | [33] | [34] | [35] | [36] | [37] | [38] | [39] | [40] | [41] | [42] | [43] | [44] | [45] | [46] | [47] | [48] | [49] | [50] | [51] | [52] | [53] | [54] | [55] | [56]

O=C(O)/C=N\Nc1nc2ccccc2[nH]1
> 100 µM: [57] | [1] | [3] | [4] | [5] | [6] | [7] | [8] | [9] | [10] | [11] | [12] | [13] | [14] | [15] | [16] | [17] | [18] | [19] | [20] | [21] | [22] | [23] | [24] | [25] | [26] | [27] | [28] | [29] | [30] | [31] | [32] | [33] | [34] | [35] | [36] | [37] | [38] | [39] | [40] | [41] | [42] | [43] | [44] | [45] | [46] | [47] | [58] | [48] | [49] | [50] | [51] | [52] | [53] | [59] | [54] | [55] | [56]
